The text below walks through data of ChEMBL document CHEMBL1909046, “DrugMatrix in vitro pharmacology data”.

Test [1] concerns the target T1, Interstitial collagenase (Homo sapiens, UniProt P03956).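 Note: MMP-1 enzyme inhibition assay using a peptide substrate; in other assays of this panel Not Active means under 50% inhibition at 10 µM.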
T1 sequence (P03956 whole entry): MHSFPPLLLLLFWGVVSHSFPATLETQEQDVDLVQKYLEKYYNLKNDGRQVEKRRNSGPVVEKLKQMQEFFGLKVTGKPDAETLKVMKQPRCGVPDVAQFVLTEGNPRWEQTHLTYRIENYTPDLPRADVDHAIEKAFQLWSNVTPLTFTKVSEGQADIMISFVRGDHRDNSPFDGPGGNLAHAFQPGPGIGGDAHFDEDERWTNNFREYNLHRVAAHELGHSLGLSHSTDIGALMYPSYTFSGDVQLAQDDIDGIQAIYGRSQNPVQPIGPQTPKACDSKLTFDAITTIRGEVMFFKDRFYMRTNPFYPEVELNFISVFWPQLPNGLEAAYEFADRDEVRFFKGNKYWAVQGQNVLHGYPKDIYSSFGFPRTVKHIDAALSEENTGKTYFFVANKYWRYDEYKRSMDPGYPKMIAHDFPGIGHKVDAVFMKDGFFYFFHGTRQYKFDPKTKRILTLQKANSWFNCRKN
The format is tissue-based, Rheumatoid synovial fibroblasts.

For test [2], the target named is T2, Alpha-1A adrenergic receptor (Rattus norvegicus, UniProt P43140).
T2 sequence (P43140 whole entry): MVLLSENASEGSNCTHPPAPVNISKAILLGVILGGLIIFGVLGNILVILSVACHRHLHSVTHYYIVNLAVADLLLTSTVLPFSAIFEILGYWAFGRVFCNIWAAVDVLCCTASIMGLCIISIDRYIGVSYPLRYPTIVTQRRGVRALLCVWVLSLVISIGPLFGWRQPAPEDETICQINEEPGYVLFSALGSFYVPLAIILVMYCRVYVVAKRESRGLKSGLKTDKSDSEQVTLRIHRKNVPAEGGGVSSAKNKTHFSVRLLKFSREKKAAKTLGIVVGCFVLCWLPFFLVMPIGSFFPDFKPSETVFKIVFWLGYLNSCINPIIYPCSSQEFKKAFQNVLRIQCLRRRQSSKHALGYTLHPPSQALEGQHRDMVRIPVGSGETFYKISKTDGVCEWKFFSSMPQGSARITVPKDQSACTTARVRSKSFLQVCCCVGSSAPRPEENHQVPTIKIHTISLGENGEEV
The experiment in a line: DRUGMATRIX: Alpha-1A adrenergic receptor radioligand binding (ligand: prazosin). The format is cell membranes, Wistar, Submaxillary gland, Membrane. As to conditions: Not Active = under 50% inhibition at 10 µM; for Ki: read-out: Ki.

Test [3] is described as follows: DRUGMATRIX: Calcium Channel Type L, Benzothiazepine radioligand binding (ligand: [3H] Diltiazem). The format is cell membranes, Rattus norvegicus, Wistar, Brain, Membrane. The settings on record: Not Active = under 50% inhibition at 10 µM.
Test [4] in a line: DRUGMATRIX: Atrial Natriuretic Factor (ANF) radioligand binding (ligand: [125I] ANF (rat)). The format is cell membranes, Cavia porcellus, Dunkin-Hartley, Adrenal gland, Membrane. The settings on record: Not Active = under 50% inhibition at 10 µM.
Test [5] concerns the target T3, 3-hydroxy-3-methylglutaryl-coenzyme A reductase (Homo sapiens, UniProt P04035).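 Note: enzyme inhibition assay of HMG-CoA reductase using radiolabeled [14C]HMG-CoA as substrate; in other assays of this panel Not Active means under 50% inhibition at 10 µM.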
T3 sequence (P04035 whole entry): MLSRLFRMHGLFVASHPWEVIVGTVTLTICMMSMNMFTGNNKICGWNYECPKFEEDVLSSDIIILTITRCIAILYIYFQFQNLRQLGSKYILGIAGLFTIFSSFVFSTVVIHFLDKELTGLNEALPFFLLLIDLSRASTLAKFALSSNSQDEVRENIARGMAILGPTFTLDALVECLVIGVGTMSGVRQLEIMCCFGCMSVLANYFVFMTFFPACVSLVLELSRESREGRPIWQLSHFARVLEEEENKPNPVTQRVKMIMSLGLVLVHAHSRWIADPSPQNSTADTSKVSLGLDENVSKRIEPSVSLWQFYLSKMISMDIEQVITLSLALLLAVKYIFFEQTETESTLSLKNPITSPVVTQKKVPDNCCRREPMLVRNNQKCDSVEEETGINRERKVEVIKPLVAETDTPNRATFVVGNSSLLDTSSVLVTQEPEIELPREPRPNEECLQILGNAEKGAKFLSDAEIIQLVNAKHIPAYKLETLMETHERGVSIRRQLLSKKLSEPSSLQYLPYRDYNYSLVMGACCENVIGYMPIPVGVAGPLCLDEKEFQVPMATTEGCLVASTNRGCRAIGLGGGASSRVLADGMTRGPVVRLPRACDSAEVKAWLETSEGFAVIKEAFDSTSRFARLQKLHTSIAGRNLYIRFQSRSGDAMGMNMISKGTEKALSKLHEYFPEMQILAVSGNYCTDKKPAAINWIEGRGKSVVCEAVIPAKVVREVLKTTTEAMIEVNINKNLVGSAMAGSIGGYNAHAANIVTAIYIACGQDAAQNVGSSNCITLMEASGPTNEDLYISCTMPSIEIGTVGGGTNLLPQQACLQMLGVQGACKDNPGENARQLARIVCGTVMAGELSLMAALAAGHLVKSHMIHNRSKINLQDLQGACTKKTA
Set-up: species or system Escherichia coli.

For test [6], the target named is Adenosine receptor A2a (Homo sapiens, UniProt P29274). The experiment in a line: DRUGMATRIX: Adenosine A2A radioligand binding (ligand: […]). The format is cell membranes, HEK293, Membrane. As to conditions: Not Active = under 50% inhibition at 10 µM.
Chain of Adenosine receptor A2a (P29274 whole entry): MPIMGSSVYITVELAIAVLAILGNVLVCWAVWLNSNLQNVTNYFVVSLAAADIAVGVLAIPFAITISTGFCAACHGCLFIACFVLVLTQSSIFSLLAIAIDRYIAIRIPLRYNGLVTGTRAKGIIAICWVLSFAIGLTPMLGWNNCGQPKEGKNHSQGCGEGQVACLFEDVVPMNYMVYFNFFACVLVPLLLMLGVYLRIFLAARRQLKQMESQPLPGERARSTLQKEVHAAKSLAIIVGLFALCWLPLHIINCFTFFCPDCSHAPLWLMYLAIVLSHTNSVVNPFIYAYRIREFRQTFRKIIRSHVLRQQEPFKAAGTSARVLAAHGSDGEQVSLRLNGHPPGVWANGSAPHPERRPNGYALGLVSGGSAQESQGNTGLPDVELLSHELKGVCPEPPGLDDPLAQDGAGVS
Test [7] in a line: DRUGMATRIX: Interleukin IL-1 radioligand binding (ligand: [125I] interleukin 1beta). The format is cell membranes, Membrane. The settings on record: nih3t3; Not Active = under 50% inhibition at 10 µM.

For the compound `CN1C[C@H](C(=O)N[C@]2(C)O[C@@]3(O)[C@@H]4CCCN4C(=O)[C@H](Cc4ccccc4)N3C2=O)C[C@@H]2c3cccc4[nH]cc(c34)C[C@H]21` [DIHYDROERGOTAMINE], the half-inhibitory concentration (IC50) (usually the concentration needed to halve the response being measured) in test [1] was “Not Active”; in test [2] (read-out: IC50), 5.03 nM; in test [3] it was “Not Active”; in test [4], “Not Active”; in test [5], “Not Active”; in test [6] (hek293), “Not Active”. Further, the IC50 entry in test [7] is “Not Active”. For the same compound, the inhibitory constant (Ki) (as a rule, a measure of affinity in units of concentration, obtained from inhibition or displacement) is 2.03 nM in test [2], “Not Active” in test [3], “Not Active” in test [4] and “Not Active” in test [7].

For `Cc1c(N(C)CS(=O)(=O)[O-])c(=O)n(-c2ccccc2)n1C.[Na+]` [DIPYRONE SODIUM], the IC50 result in test [1], in test [2], in test [3], in test [4], in test [5] and in test [6] (hek293) was “Not Active” throughout. Besides, the IC50 entry in test [7] was “Not Active”. Also, the Ki entry in test [3], in test [4] and in test [7] was “Not Active” each time.

For the compound `CC(CCc1ccc(O)cc1)NCCc1ccc(O)c(O)c1` (stereo not drawn) [DOBUTAMINE], the 50% inhibitory concentration (IC50) result in test [1] was “Not Active”; in test [2] (read-out: IC50), 110 nM; in test [3], “Not Active”; in test [4], “Not Active”; in test [5] it was “Not Active”; in test [6] (hek293), “Not Active”. Moreover, the IC50 result in test [7] was “Not Active”. For the same compound, the inhibition constant Ki in test [2] was 45 nM; in test [3], “Not Active”; in test [4], “Not Active”; in test [7], “Not Active”.

For `CCn1cc(C(=O)O)c(=O)c2cc(F)c(N3CCNCC3)nc21` [ENOXACIN], the IC50 entry in test [1], in test [2], in test [3], in test [4], in test [5] and in test [6] (hek293) was “Not Active” in each case. Besides, in test [7], the IC50 entry is reported as “Not Active”. Besides, the Ki result in test [3], in test [4] and in test [7] was “Not Active” throughout.

Consider `CCC(=O)O[C@H]1[C@H](O[C@@H]2[C@@H](C)[C@H](O[C@H]3C[C@@](C)(OC)[C@@H](O)[C@H](C)O3)[C@@H](C)C(=O)O[C@H](CC)[C@@](C)(O)[C@H](O)[C@@H](C)C(=O)[C@H](C)C[C@@]2(C)O)O[C@H](C)C[C@@H]1N(C)C` [ERYTHROMYCIN PROPIONATE], for which the IC50 result in test [1], in test [2], in test [3], in test [4], in test [5] and in test [6] (hek293) was “Not Active” each time. Besides, in test [7], the IC50 result is “Not Active”. Moreover, the inhibition constant (Ki) result in test [3], in test [4] and in test [7] was “Not Active” each time.

With `C=C(CC)C(=O)c1ccc(OCC(=O)O)c(Cl)c1Cl` [ETHACRYNIC ACID], the half-maximal inhibitory concentration (IC50) result in test [1], in test [2], in test [3], in test [4], in test [5] and in test [6] (hek293) was “Not Active” in each case. For the same compound, the IC50 result in test [7] is “Not Active”. Also, the Ki entry in test [3], in test [4] and in test [7] was “Not Active” throughout.

With `C#C[C@]1(O)CC[C@H]2[C@@H]3CCc4cc(O)ccc4[C@H]3CC[C@@]21C` [ETHINYL ESTRADIOL], the IC50 result is “Not Active” in test [1]; “Not Active” in test [2]; 15400 nM in test [3] (read-out: IC50); “Not Active” in test [4]; “Not Active” in test [5]; 20900 nM in test [6] (read-out: IC50). Also, in test [7], the IC50 entry is “Not Active”. Moreover, the inhibition constant (Ki) in test [3] (read-out: Ki) is 13700 nM; in test [4] it was “Not Active”; in test [6] (read-out: Ki), 11800 nM; in test [7], “Not Active”.

Take `OCCO` [ETHYLENE GLYCOL]: the concentration for half-maximal inhibition (IC50) entry in test [1], in test [2], in test [3], in test [4], in test [5] and in test [6] (hek293) was “Not Active” each time. In addition, in test [7], the 50% inhibitory concentration (IC50) result was “Not Active”. Also, the Ki entry in test [3], in test [4] and in test [7] was “Not Active” in each case.

As for `CC(=O)OCC(CCn1cnc2cnc(N)nc21)COC(C)=O` [FAMCICLOVIR], the half-inhibitory concentration (IC50) entry in test [1], in test [2], in test [3], in test [4], in test [5] and in test [6] (hek293) was “Not Active” throughout. For the same compound, the IC50 entry in test [7] is “Not Active”. For the same compound, the Ki entry in test [3], in test [4] and in test [7] was “Not Active” in each case.

Take `O=C(O)Cc1ccc(-c2ccccc2)cc1` [FELBINAC]: the IC50 entry in test [1], in test [2], in test [3], in test [4], in test [5] and in test [6] (hek293) was “Not Active” throughout. Moreover, the IC50 entry in test [7] is reported as “Not Active”. In addition, the Ki entry in test [3], in test [4] and in test [7] was “Not Active” throughout.

Take `CCOC(=O)C1=C(C)NC(C)=C(C(=O)OC)C1c1cccc(Cl)c1Cl` (stereo not drawn) [FELODIPINE]: the 50% inhibitory concentration (IC50) result in test [1] is “Not Active”; in test [2], “Not Active”; in test [3] (read-out: IC50) it was 23 nM; in test [4], “Not Active”; in test [5], “Not Active”; in test [6] (hek293) it was “Not Active”. Moreover, in test [7], the IC50 entry was “Not Active”. Besides, the inhibitory constant (Ki) is 20 nM in test [3] (read-out: Ki), “Not Active” in test [4] and “Not Active” in test [7].

For the compound `CC(C(=O)O)c1ccc(-c2ccccc2)c(F)c1` (stereo not drawn) [FLURBIPROFEN], the concentration for half-maximal inhibition (IC50) entry in test [1], in test [2], in test [3], in test [4], in test [5] and in test [6] (hek293) was “Not Active” in each case. The IC50 entry in test [7] is recorded as “Not Active”. Besides, the inhibitory constant (Ki) entry in test [3], in test [4] and in test [7] was “Not Active” throughout.

Take `Cc1cn[nH]c1` [FOMEPIZOLE]: the IC50 result in test [1], in test [2], in test [3], in test [4], in test [5] and in test [6] (hek293) was “Not Active” in each case. In addition, in test [7], the IC50 entry is reported as “Not Active”. For the same compound, the inhibition constant (Ki) result in test [3], in test [4] and in test [7] was “Not Active” each time.
